Laboratory results taken from patent US8198330B2, “Therapeutic or prophylactic agent for diabetes, obesity, dyslipidemia or metabolic syndrome comprising benzylamine derivative or pharmaceutically acceptable acid addition salt thereof” (Toray Industries, Inc., priority 2008, dated 2012).

Tests used:
KK/Ay mice = experiment: Efficacy in Type 2 diabetes-model mice (KK/Ay mice); assay type: in vivo, mouse
Protocol: KK/Ay male mice of 5 weeks of age (CLEA Japan, Inc.) were purchased; a feeding stuff for growth CMF (Oriental Yeast) was provided since the day of arrival; and mice after growth for 3 weeks or longer were used. The compound of Example 1 was diluted to 2 mg/mL, as it is dissolved in physiological saline, and the solution was administered subcutaneously in an amount of 5 mL/kg, by using a disposable syringe (Terumo) and a 26G injection needle (Terumo). Physiological saline was administered to the mice in the vehicle group. The solution was administered once a day from the day of first administration (day 0) to day 13, and the tail vein was cut open with a knife (disposable scalpel, FEATHER) and the blood sugar was determined with a simplified blood sugar analyzer (MediSense Precision Xceed, Abotto Japan). Statistical treatment of the individual data obtained was carried out by a two-group test (unpaired t-test).

anesthetized dog = experiment: Effect on electrocardiogram of anesthetized dog; assay type: in vivo; conditions: for QTc: Fridericia
Protocol: A male beagle and a female beagle of 11 months of age were used in the test. A beagle was anesthetized by intravenous administration of thiopental sodium at 25 mg/kg, and fixed at the dorsal position under anesthesia by isoflurane inhalation with oxygen-nitrous oxide gas (1:1). Artificial respiration was carried out under the condition of 20 mL/kg and 15 times/minute. In measurement of the electrocardiogram, bipolar extremity leads (I, II and III) and augmented unipolar extremity leads (aVR, aVL and aVF) were recorded and QT interval determined by using an electrocardiogram analyzer for animals (α6000AX-D, Fukuda M-E Kogyo Co., Ltd.), as needle electrodes were placed on four extremities.
The QTc value was calculated according to the Fridericia's formula: QTc=QT/^3√{square root over ( )}(R−R). For observation of arrhythmia in electrocardiographic waveform during test, compression electrocardiogram was printed out from the small memory card by using a long-term electrocardiogram analyzer (HS1000 system, Fukuda M-E Kogyo Co., Ltd.). The samples of the compound of Example 1 were prepared by dissolving the compound in physiological saline at concentrations of 12 mg/mL, 4 mg/mL and 1.2 mg/mL. After confirmation of stabilization of the electrocardiogram, the sample was administered through a needle (22G) previously placed in the side forearm subcutaneous vein, by using an automatic injector (Harvard digital infusion pump MODEL-22, HARVARD […]) over a period of 10 minutes.
First, vehicle (physiological saline) was administered in an amount of 0.5 mL/kg and then, after 35 minutes, 1.2 mg/mL physiological saline solution of the compound of Example 1 was administered in an amount of 0.5 mL/kg. Additionally, 4 mg/mL or 12 mg/mL physiological saline solution of the compound of Example 1 was administered in an amount of 0.5 mL/kg at an interval of 65 minutes after administration. The QT interval and the QTc value were measured, in each administration above, 5 minutes before administration, immediately before start of administration, as well as 5, 10, 15 and 30 minutes after start of administration. Thus, the measured value 30 or 60 minutes after start of previous administration corresponds to the value 5 minutes before start of administration for the following application.

[1] = Individual 1 (male), 0.6 mg/kg/10 min i.v., 0 min (immediately before start of administration)
[2] = Individual 1 (male), 0.6 mg/kg/10 min i.v., 5 min after start of administration
[3] = Individual 1 (male), 0.6 mg/kg/10 min i.v., 10 min after start of administration
[4] = Individual 1 (male), 0.6 mg/kg/10 min i.v., 15 min after start of administration
[5] = Individual 1 (male), 0.6 mg/kg/10 min i.v., 30 min after start of administration
[6] = Individual 1 (male), 0.6 mg/kg/10 min i.v., 45 min after start of administration
[7] = Individual 1 (male), 0.6 mg/kg/10 min i.v., 60 min after start of administration
[8] = Individual 1 (male), 2 mg/kg/10 min i.v., 0 min (immediately before start of administration)
[9] = Individual 1 (male), 2 mg/kg/10 min i.v., 5 min after start of administration
[10] = Individual 1 (male), 2 mg/kg/10 min i.v., 10 min after start of administration
[11] = Individual 1 (male), 2 mg/kg/10 min i.v., 15 min after start of administration
[12] = Individual 1 (male), 2 mg/kg/10 min i.v., 30 min after start of administration
[13] = Individual 1 (male), 2 mg/kg/10 min i.v., 45 min after start of administration
[14] = Individual 1 (male), 2 mg/kg/10 min i.v., 60 min after start of administration
[15] = Individual 1 (male), 6 mg/kg/10 min i.v., 0 min (immediately before start of administration)
[16] = Individual 1 (male), 6 mg/kg/10 min i.v., 5 min after start of administration
[17] = Individual 1 (male), 6 mg/kg/10 min i.v., 10 min after start of administration
[18] = Individual 1 (male), 6 mg/kg/10 min i.v., 15 min after start of administration
[19] = Individual 1 (male), 6 mg/kg/10 min i.v., 30 min after start of administration
[20] = Individual 1 (male), 6 mg/kg/10 min i.v., 45 min after start of administration
[21] = Individual 1 (male), 6 mg/kg/10 min i.v., 60 min after start of administration
[22] = Individual 2 (female), 0.6 mg/kg/10 min i.v., 0 min (immediately before start of administration)
[23] = Individual 2 (female), 0.6 mg/kg/10 min i.v., 5 min after start of administration
[24] = Individual 2 (female), 0.6 mg/kg/10 min i.v., 10 min after start of administration
[25] = Individual 2 (female), 0.6 mg/kg/10 min i.v., 15 min after start of administration
[26] = Individual 2 (female), 0.6 mg/kg/10 min i.v., 30 min after start of administration
[27] = Individual 2 (female), 0.6 mg/kg/10 min i.v., 45 min after start of administration
[28] = Individual 2 (female), 0.6 mg/kg/10 min i.v., 60 min after start of administration
[29] = Individual 2 (female), 2 mg/kg/10 min i.v., 0 min (immediately before start of administration)
[30] = Individual 2 (female), 2 mg/kg/10 min i.v., 5 min after start of administration
[31] = Individual 2 (female), 2 mg/kg/10 min i.v., 10 min after start of administration
[32] = Individual 2 (female), 2 mg/kg/10 min i.v., 15 min after start of administration
[33] = Individual 2 (female), 2 mg/kg/10 min i.v., 30 min after start of administration
[34] = Individual 2 (female), 2 mg/kg/10 min i.v., 45 min after start of administration
[35] = Individual 2 (female), 2 mg/kg/10 min i.v., 60 min after start of administration
[36] = Individual 2 (female), 6 mg/kg/10 min i.v., 0 min (immediately before start of administration)
[37] = Individual 2 (female), 6 mg/kg/10 min i.v., 5 min after start of administration
[38] = Individual 2 (female), 6 mg/kg/10 min i.v., 10 min after start of administration
[39] = Individual 2 (female), 6 mg/kg/10 min i.v., 15 min after start of administration
[40] = Individual 2 (female), 6 mg/kg/10 min i.v., 30 min after start of administration
[41] = Individual 2 (female), 6 mg/kg/10 min i.v., 45 min after start of administration
[42] = Individual 2 (female), 6 mg/kg/10 min i.v., 60 min after start of administration
[43] = anesthetized beagle, i.v. 0.6, 2 and 6 mg/kg/10 min

COc1cc(CN[C@@H](C)[C@H](O)c2ccc(O)c(NS(C)(=O)=O)c2)cc(OC)c1 [Example 1, N-(5-((1R,2S)-2-(3,5-Dimethoxybenzylamino)-1-hydroxypropyl)-2-hydroxyphenyl)methanesulfonamide]
blood sugar versus solvent group (KK/Ay mice): lowered the blood sugar statistically significantly | Blood sugar (KK/Ay mice; 10 mg/kg s.c. once a day, day 0 to day 13): 336 ± 33 mg/dL | QT interval (anesthetized dog; [1]): 241 ms | QTc (anesthetized dog; [1]): 303 ms | QT interval (anesthetized dog; [2]): 228 ms | QTc (anesthetized dog; [2]): 299 ms | QT interval (anesthetized dog; [3]): 210 ms | QTc (anesthetized dog; [3]): 287 ms | QT interval (anesthetized dog; [4]): 205 ms | QTc (anesthetized dog; [4]): 280 ms | QT interval (anesthetized dog; [5]): 213 ms | QTc (anesthetized dog; [5]): 290 ms | QT interval (anesthetized dog; [6]): 220 ms | QTc (anesthetized dog; [6]): 296 ms | QT interval (anesthetized dog; [7]): 221 ms | QTc (anesthetized dog; [7]): 294 ms | QT interval (anesthetized dog; [8]): 218 ms | QTc (anesthetized dog; [8]): 293 ms | QT interval (anesthetized dog; [9]): 203 ms | QTc (anesthetized dog; [9]): 283 ms | QT interval (anesthetized dog; [10]): 203 ms | QTc (anesthetized dog; [10]): 283 ms | QT interval (anesthetized dog; [11]): 213 ms | QTc (anesthetized dog; [11]): 294 ms | QT interval (anesthetized dog; [12]): 218 ms | QTc (anesthetized dog; [12]): 297 ms | QT interval (anesthetized dog; [13]): 221 ms | QTc (anesthetized dog; [13]): 299 ms | QT interval (anesthetized dog; [14]): 225 ms | QTc (anesthetized dog; [14]): 304 ms | QT interval (anesthetized dog; [15]): 220 ms | QTc (anesthetized dog; [15]): 296 ms | QT interval (anesthetized dog; [16]): 210 ms | QTc (anesthetized dog; [16]): 292 ms | QT interval (anesthetized dog; [17]): 211 ms | QTc (anesthetized dog; [17]): 294 ms | QT interval (anesthetized dog; [18]): 210 ms | QTc (anesthetized dog; [18]): 291 ms | QT interval (anesthetized dog; [19]): 211 ms | QTc (anesthetized dog; [19]): 291 ms | QT interval (anesthetized dog; [20]): 235 ms | QTc (anesthetized dog; [20]): 320 ms | QT interval (anesthetized dog; [21]): 226 ms | QTc (anesthetized dog; [21]): 305 ms | QT interval (anesthetized dog; [22]): 240 ms | QTc (anesthetized dog; [22]): 293 ms | QT interval (anesthetized dog; [23]): 243 ms | QTc (anesthetized dog; [23]): 315 ms | QT interval (anesthetized dog; [24]): 236 ms | QTc (anesthetized dog; [24]): 310 ms | QT interval (anesthetized dog; [25]): 223 ms | QTc (anesthetized dog; [25]): 296 ms | QT interval (anesthetized dog; [26]): 218 ms | QTc (anesthetized dog; [26]): 297 ms | QT interval (anesthetized dog; [27]): 211 ms | QTc (anesthetized dog; [27]): 288 ms | QT interval (anesthetized dog; [28]): 213 ms | QTc (anesthetized dog; [28]): 292 ms | QT interval (anesthetized dog; [29]): 215 ms | QTc (anesthetized dog; [29]): 293 ms | QT interval (anesthetized dog; [30]): 210 ms | QTc (anesthetized dog; [30]): 292 ms | QT interval (anesthetized dog; [31]): 210 ms | QTc (anesthetized dog; [31]): 289 ms | QT interval (anesthetized dog; [32]): 210 ms | QTc (anesthetized dog; [32]): 288 ms | QT interval (anesthetized dog; [33]): 225 ms | QTc (anesthetized dog; [33]): 303 ms | QT interval (anesthetized dog; [34]): 220 ms | QTc (anesthetized dog; [34]): 298 ms | QT interval (anesthetized dog; [35]): 221 ms | QTc (anesthetized dog; [35]): 299 ms | QT interval (anesthetized dog; [36]): 220 ms | QTc (anesthetized dog; [36]): 296 ms | QT interval (anesthetized dog; [37]): 215 ms | QTc (anesthetized dog; [37]): 293 ms | QT interval (anesthetized dog; [38]): 211 ms | QTc (anesthetized dog; [38]): 289 ms | QT interval (anesthetized dog; [39]): 215 ms | QTc (anesthetized dog; [39]): 292 ms | QT interval (anesthetized dog; [40]): 213 ms | QTc (anesthetized dog; [40]): 289 ms | QT interval (anesthetized dog; [41]): 226 ms | QTc (anesthetized dog; [41]): 303 ms | QT interval (anesthetized dog; [42]): 220 ms | QTc (anesthetized dog; [42]): 294 ms | arrhythmia in electrocardiographic waveform (anesthetized dog; [43]): no arrhythmia observed | prolongation of the QT interval (anesthetized dog; [43]): did not cause prolongation of the QT interval
